Assay results taken from publication PMC8272148, “Antioxidant Serine-(NSAID) Hybrids with Anti-Inflammatory and Hypolipidemic Potency” (Molecules, 2021).
Marks after values point to notes of the source that are not given here.

Columns and labels:
[1] = system: carrageenan-induced rat paw edema; assay: Carrageenan-induced rat paw edema; format: in vivo, Wistar rats; settings: ip, 0.15 mmol/kg i.p., 3.5 h after carrageenan, vs controls, read-out: % Edema Reduction
Method: An amount of 0.1 mL of an aqueous carrageenan solution (1% w/v) was injected into the hind paw of adult Wistar rats (6 rats were used for each compound). The tested compounds (in water with a few drops of Tween 80) were administered i.p. (0.15 mmol/kg) 5 min before the carrageenan administration. The produced edema, after 3.5 h, was estimated as paw weight increase.

[2] = system: rat hepatic microsomal membrane lipid peroxidation; assay: Inhibition of rat hepatic microsomal membrane lipid peroxidation (ferrous ascorbate induced, TBA reactive material); format: biochemical; settings: 100 μM compound, after 45 min of incubation
Method: The peroxidation of the heat-inactivated rat hepatic microsomal fraction was induced by ferrous ascorbate. The studied compounds, in dimethylsulfoxide, were added at concentrations of 1 μM–1 mM. Aliquots were taken from the incubation mixture (37 °C) for 45 min. Lipid peroxidation was assessed spectrophotometrically (535/600 nm) as a 2-thiobarbituric acid reactive material. The incubation mixture and solvents were found not to interfere with the assay.

[3] = system: Triton WR1339 (tyloxapol)-induced hyperlipidemia; assay: Triton WR1339 (tyloxapol)-induced hyperlipidemia in rats; format: in vivo, Wistar rats; settings: 150 μmol/kg i.p., rat plasma, 24 h, tyloxapol 200 mg/kg i.p.
Method: The examined compounds (0.15 mmol/kg) were administered i.p. one hour later. Blood was taken from the aorta after 24 h, for the determination of plasma total cholesterol, LDL cholesterol and triglyceride concentration, using commercial kits.

soybean lipoxygenase 1-B = target: T1, soybean lipoxygenase 1-B (Glycine max, UniProt P08170); assay: In vitro inhibition of soybean lipoxygenase; format: biochemical; settings: linoleic acid (100 μM) as substrate, after 7 min of incubation
T1 sequence (P08170 1-839): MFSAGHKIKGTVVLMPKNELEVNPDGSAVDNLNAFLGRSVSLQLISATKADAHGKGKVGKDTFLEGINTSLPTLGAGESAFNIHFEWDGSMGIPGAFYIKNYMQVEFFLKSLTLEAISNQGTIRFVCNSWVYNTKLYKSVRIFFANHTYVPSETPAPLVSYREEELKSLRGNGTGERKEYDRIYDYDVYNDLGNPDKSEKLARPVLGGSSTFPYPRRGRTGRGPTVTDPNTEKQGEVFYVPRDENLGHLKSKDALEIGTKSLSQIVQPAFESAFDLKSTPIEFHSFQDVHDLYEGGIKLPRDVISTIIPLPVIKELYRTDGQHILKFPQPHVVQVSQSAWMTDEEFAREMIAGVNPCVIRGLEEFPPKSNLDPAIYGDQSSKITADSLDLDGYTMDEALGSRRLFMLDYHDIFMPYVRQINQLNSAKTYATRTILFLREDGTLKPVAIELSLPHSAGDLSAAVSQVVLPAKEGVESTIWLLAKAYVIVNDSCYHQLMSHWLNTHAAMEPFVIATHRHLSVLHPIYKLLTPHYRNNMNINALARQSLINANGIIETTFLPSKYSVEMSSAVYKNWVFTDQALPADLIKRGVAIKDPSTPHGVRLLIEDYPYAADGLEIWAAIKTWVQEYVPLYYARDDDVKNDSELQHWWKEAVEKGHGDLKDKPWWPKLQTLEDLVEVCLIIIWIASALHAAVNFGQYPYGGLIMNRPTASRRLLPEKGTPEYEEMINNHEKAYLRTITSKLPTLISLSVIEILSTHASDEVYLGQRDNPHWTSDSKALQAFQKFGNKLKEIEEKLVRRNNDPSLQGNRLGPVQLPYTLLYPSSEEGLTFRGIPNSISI
Method: The reaction mixture contained the test compounds, dissolved in absolute ethanol (0.1 mL) at various concentrations, or the solvent (control, 0.1 mL), soybean lipoxygenase dissolved in 0.9% NaCl solution (250 u/mL, 0.2 mL) and sodium linoleate (100 μM) in Tris–HCl buffer, pH 9.0 (2.7 mL). The reaction was followed for 7 min at 28 °C, recording the absorbance of a conjugated diene structure at 234 nm, due to the formation of 13-hydroperoxy-linoleic acid. […] For the estimation of the type of inhibition, the above experiments were repeated, using sodium linoleate at 1 mM, which is higher than the saturating substrate concentration.

[4] = Interaction with the stable radical DPPH; settings: DPPH 200 μM, after 30 min
Method: Compounds, dissolved in absolute ethanol, at concentrations of 25–200 μM, were added to an equal volume of an ethanolic solution of DPPH (final concentration 200 μM) at room temperature (22 ± 2 °C). Absorbance (517 nm) was recorded after 30 min [26]. For the calculation of percent interaction, the residual absorbance of DPPH Ai (at a fixed concentration) after its interaction with the examined compounds (at various concentrations) was compared with the control absorbance Ao, without the addition of compounds, following the equation: (1) Percent interaction=100−(Ai/Ao×100)

CCOC(=O)C(COC(=O)C(C)c1cccc(C(=O)c2ccccc2)c1)NC(=O)/C=C/c1cc(C(C)(C)C)c(O)c(C(C)(C)C)c1 (stereo not shown) [Compound 12, (E)-ethyl 3-((2-(3-benzoylphenyl)propanoyl)oxy)-2-(3-(3,5-di-tert-butyl-4-hydroxyphenyl)acrylamido)propanoate]
inhibition in vivo at 150 µmol/kg [1]: 59% | Inhibition of Lipid Peroxidation, percent at 100 μM [2]: 20%/100 μM | % Reduction LDL-C (LDL cholesterol) [3]: 56.2 * % | % Reduction TC (total cholesterol) [3]: 53.4 ** % | % Reduction TG (triglycerides) [3]: 33.2 * % | IC50 (soybean lipoxygenase 1-B): 90 µM | Percent Interaction with DPPH ([4]; compound 25 μM): 20.0% | Percent Interaction with DPPH ([4]; compound 50 μM): 24.7% | Percent Interaction with DPPH ([4]; compound 100 μM): 53.8% | Percent Interaction with DPPH ([4]; compound 200 μM): 94.0%
